# In ChEMBL document CHEMBL1909046, “DrugMatrix in vitro pharmacology data”:
# Experiments:
# [1] = DRUGMATRIX: Calcium Channel Type L, Phenylalkylamine radioligand binding (ligand: [3H] (-)-Desmethoxyverapamil (D-888)); type: cell membranes, Rattus norvegicus, Wistar, Brain, Membrane; details: Not Active = under 50% inhibition at 10 µM
# Adenosine receptor A2a = Adenosine receptor A2a (Homo sapiens, UniProt P29274); assay: DRUGMATRIX: Adenosine A2A radioligand binding (ligand: […]); type: cell membranes, HEK293, Membrane; details: hek293; Not Active = under 50% inhibition at 10 µM
# Caspase-1 = biological target: T1, Caspase-1 (Homo sapiens, UniProt P29466); design: species or system Escherichia coli;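 also: Caspase-1 enzyme inhibition assay with a peptide substrate; in other assays of this panel Not Active means under 50% inhibition at 10 µM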
# T1 sequence (P29466 whole entry): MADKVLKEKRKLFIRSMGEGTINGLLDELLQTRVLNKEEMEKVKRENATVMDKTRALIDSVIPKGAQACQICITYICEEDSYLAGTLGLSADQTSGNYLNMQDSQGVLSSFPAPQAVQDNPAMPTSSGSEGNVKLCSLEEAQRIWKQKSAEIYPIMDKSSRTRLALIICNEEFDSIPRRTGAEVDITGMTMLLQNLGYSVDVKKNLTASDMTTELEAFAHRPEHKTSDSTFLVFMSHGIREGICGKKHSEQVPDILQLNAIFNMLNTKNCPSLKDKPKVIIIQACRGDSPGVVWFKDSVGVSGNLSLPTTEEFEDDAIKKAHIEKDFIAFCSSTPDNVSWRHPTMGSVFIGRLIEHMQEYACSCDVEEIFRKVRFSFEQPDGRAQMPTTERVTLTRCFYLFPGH
# [2] = biological target: Mitogen-activated protein kinase 14 (Homo sapiens, UniProt Q16539); design: species or system Escherichia coli;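 also: inhibition of p38alpha enzyme activity in a biochemical kinase assay, with myelin basic protein serving as substrate; in other assays of this panel Not Active means under 50% inhibition at 10 µM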
# Glycine receptor = Glycine receptor (Rattus norvegicus, UniProt P22771+P24524+P07727+P20781); type: cell membranes, Wistar, Spinal cord, Membrane; also: in other assays of this panel Not Active means under 50% inhibition at 10 µM
# Thromboxane-A synthase = biological target: T2, Thromboxane-A synthase (Homo sapiens, UniProt P24557); assay: biochemical; type: tissue-based, Platelet; details: platelet;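 also: enzyme inhibition assay with PGH2 supplied as substrate; in other assays of this panel Not Active means under 50% inhibition at 10 µM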
# T2 sequence (P24557 whole entry): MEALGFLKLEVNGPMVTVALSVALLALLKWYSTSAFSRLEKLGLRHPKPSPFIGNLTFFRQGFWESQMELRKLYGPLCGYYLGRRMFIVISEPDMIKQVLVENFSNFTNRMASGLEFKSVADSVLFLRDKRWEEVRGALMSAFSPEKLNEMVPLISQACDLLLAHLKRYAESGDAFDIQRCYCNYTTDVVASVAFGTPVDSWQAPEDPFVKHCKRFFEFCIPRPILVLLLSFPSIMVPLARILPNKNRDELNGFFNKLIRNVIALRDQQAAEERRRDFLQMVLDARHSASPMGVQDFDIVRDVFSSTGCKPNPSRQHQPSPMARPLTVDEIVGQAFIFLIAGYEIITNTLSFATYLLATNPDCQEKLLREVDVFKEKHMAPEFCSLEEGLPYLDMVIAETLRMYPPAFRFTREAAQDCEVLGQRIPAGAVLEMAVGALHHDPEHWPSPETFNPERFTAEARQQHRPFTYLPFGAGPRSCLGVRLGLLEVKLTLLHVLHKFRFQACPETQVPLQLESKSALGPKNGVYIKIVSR
# Substance-P receptor = Substance-P receptor (Homo sapiens, UniProt P25103); type: cell membranes, CHO, Membrane; details: cho; also: in other assays of this panel Not Active means under 50% inhibition at 10 µM
# D(1A) dopamine receptor = D(1A) dopamine receptor (Homo sapiens, UniProt P21728); assay: DRUGMATRIX: Dopamine D1 radioligand binding (ligand: [3H] SCH-23390); type: cell membranes, CHO, Membrane; details: cho; Not Active = under 50% inhibition at 10 µM
# [3] = biological target: Platelet-activating factor receptor (Homo sapiens, UniProt P25105); assay: biochemical; type: tissue-based; details: platelet; also: in other assays of this panel Not Active means under 50% inhibition at 10 µM
# [4] = DRUGMATRIX: Tumor Necrosis Factor (TNF), Non-Selective radioligand binding (ligand: [125I] TNF-alpha); type: cell membranes, Membrane; details: u-937; Not Active = under 50% inhibition at 10 µM
# Adenosine receptor A3 = biological target: T3, Adenosine receptor A3 (Homo sapiens, UniProt P0DMS8); type: cell membranes, CHO-K1, Membrane; details: for Ki: read-out: Ki
# T3 sequence (P0DMS8 whole entry): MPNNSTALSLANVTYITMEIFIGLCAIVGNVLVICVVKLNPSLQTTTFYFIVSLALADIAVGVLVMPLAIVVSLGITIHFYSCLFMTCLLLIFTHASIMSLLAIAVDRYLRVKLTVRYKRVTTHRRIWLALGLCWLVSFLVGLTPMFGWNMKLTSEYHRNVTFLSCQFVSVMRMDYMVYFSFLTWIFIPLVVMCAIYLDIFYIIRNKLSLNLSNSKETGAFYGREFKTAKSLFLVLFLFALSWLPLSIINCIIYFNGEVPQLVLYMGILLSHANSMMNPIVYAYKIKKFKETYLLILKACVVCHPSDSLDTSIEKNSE
# [5] = biological target: 5-hydroxytryptamine receptor 2B (Homo sapiens, UniProt P41595); type: cell membranes, CHO-K1, Membrane; details: for Ki: read-out: Ki
# [6] = biological target: T4, Neuropeptide Y receptor type 2 (Homo sapiens, UniProt P49146); type: cell membranes, Membrane; details: kan-ts; also: in other assays of this panel Not Active means under 50% inhibition at 10 µM
# T4 sequence (P49146 whole entry): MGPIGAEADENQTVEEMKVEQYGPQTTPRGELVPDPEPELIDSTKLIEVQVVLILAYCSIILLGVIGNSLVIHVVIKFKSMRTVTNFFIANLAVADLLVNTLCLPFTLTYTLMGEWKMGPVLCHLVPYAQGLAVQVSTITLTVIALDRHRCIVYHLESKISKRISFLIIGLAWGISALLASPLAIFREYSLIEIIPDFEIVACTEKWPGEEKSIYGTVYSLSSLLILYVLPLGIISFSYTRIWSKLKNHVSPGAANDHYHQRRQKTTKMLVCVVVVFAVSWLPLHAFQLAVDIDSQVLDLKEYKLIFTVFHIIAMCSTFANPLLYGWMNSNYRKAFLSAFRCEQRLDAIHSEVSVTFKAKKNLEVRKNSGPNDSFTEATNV
# [7] = biological target: T5, C-C chemokine receptor type 4 (Homo sapiens, UniProt P51679); type: cell membranes, Membrane; details: chem-1; also: in other assays of this panel Not Active means under 50% inhibition at 10 µM
# T5 sequence (P51679 whole entry): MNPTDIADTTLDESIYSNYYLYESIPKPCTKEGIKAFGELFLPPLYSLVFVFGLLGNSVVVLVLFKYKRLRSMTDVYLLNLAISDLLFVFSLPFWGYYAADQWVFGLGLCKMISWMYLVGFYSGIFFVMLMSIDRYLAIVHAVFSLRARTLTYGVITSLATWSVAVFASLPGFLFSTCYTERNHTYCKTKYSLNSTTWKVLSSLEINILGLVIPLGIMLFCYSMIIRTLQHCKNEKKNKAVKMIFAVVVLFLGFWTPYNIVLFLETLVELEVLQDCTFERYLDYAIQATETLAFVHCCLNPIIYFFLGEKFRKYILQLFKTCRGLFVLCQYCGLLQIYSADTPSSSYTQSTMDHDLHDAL
# [8] = DRUGMATRIX: Glutamate, Kainate radioligand binding (ligand: [3H] Kainic acid); type: cell membranes, Rattus norvegicus, Wistar, Brain, Membrane; details: Not Active = under 50% inhibition at 10 µM
# Adenosine receptor A2a, sequence (P29274 whole entry): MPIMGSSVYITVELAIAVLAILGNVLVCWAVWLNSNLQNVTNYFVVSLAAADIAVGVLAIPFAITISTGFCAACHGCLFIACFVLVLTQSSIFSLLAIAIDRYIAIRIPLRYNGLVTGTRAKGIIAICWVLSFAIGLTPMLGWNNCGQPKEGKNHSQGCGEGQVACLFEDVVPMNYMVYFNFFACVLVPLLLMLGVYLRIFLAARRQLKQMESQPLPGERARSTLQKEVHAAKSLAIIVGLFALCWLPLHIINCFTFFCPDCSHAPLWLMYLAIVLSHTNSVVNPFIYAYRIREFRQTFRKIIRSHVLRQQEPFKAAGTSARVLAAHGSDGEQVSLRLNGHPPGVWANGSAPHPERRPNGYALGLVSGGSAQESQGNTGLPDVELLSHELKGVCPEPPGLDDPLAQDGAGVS
# Substance-P receptor, sequence (P25103 whole entry): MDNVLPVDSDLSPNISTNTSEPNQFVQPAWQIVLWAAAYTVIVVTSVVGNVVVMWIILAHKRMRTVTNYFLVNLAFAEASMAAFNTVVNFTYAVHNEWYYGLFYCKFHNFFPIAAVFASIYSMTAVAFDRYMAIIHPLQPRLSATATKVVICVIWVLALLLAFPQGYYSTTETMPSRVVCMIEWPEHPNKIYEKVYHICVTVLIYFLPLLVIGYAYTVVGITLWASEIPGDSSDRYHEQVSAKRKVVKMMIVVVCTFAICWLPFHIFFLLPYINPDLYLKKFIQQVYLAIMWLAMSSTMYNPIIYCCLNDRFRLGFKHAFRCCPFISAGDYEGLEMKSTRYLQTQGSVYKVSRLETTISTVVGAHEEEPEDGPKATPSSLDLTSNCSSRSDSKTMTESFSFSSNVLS
# 5-hydroxytryptamine receptor 2B, sequence (P41595 whole entry): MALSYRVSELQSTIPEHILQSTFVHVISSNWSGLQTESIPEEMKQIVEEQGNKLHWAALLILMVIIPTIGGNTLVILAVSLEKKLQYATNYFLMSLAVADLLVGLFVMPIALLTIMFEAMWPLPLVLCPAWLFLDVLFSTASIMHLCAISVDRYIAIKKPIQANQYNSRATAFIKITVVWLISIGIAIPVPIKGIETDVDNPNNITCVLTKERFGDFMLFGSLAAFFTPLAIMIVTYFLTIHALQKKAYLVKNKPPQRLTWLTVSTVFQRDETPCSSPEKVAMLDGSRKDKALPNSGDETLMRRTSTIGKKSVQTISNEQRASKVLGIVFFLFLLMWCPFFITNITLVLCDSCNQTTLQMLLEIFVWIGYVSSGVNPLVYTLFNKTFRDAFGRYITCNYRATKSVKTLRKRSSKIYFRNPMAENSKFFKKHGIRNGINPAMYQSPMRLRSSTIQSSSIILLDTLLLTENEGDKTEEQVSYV
# Platelet-activating factor receptor, sequence (P25105 whole entry): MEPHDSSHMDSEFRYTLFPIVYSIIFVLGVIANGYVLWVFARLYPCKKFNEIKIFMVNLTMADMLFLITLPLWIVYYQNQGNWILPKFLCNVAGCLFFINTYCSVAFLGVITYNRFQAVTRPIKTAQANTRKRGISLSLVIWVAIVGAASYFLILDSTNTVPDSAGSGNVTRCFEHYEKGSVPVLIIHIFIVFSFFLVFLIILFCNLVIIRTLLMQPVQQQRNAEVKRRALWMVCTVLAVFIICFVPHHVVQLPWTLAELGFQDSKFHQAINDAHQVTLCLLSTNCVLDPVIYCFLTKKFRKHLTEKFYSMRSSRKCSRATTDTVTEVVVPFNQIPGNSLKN
# D(1A) dopamine receptor, sequence (P21728 whole entry): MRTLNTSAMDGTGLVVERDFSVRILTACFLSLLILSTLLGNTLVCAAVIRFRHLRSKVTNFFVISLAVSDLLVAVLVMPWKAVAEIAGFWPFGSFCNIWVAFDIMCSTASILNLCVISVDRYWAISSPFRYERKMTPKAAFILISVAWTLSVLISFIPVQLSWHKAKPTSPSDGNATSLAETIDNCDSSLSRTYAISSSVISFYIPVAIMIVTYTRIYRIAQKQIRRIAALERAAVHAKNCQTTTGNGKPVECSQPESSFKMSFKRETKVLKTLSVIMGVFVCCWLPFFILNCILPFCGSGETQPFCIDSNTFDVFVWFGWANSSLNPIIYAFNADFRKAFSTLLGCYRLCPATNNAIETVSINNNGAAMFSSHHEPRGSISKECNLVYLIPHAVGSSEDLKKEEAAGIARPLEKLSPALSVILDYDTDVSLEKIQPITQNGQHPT
# Mitogen-activated protein kinase 14, sequence (Q16539 whole entry): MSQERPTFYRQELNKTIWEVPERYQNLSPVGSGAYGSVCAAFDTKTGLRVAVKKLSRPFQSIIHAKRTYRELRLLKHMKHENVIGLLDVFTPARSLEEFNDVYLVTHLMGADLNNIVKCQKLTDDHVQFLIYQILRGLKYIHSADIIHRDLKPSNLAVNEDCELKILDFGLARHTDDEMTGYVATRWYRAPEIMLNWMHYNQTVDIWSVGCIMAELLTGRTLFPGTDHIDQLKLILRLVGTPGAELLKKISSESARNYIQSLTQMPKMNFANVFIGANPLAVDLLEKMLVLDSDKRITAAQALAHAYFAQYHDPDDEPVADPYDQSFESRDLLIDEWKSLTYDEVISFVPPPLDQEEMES
structure (smiles),measurement,setting,value
CCOC(=O)[C@H](CCc1ccccc1)N[C@@H](C)C(=O)N1[C@H](C(=O)O)C[C@@H]2CCC[C@@H]21,IC50,[1],Not Active
same,Ki,[1],Not Active
same,IC50,Adenosine receptor A2a,Not Active
same,IC50,Caspase-1,Not Active
same,IC50,[2],Not Active
same,IC50,Glycine receptor,Not Active
same,IC50,Thromboxane-A synthase,Not Active
same,IC50,Substance-P receptor,Not Active
same,IC50,D(1A) dopamine receptor,Not Active
same,IC50,[3],Not Active
same,IC50,[4],Not Active
same,Ki,[4],Not Active
same,IC50,Adenosine receptor A3; cho-k1,Not Active
same,IC50,[5]; cho-k1,Not Active
same,IC50,[6],Not Active
same,IC50,[7],Not Active
same,IC50,[8],Not Active
same,Ki,[8],Not Active
CC1(C)[C@H]2CC[C@]1(C)C(=O)C2 [(-)-CAMPHOR],IC50,[1],Not Active
same,Ki,[1],Not Active
same,IC50,Adenosine receptor A2a,Not Active
same,IC50,Caspase-1,Not Active
same,IC50,[2],Not Active
same,IC50,Glycine receptor,Not Active
same,IC50,Thromboxane-A synthase,Not Active
same,IC50,Substance-P receptor,Not Active
same,IC50,D(1A) dopamine receptor,Not Active
same,IC50,[3],Not Active
same,IC50,[4],Not Active
same,Ki,[4],Not Active
same,IC50,Adenosine receptor A3; cho-k1,Not Active
same,IC50,[5]; cho-k1,Not Active
same,IC50,[6],Not Active
same,IC50,[7],Not Active
same,IC50,[8],Not Active
same,Ki,[8],Not Active
CC(C)(C)NCC(O)c1ccc(O)c(CO)c1 (stereo not drawn) [ALBUTEROL],IC50,[1],Not Active
same,Ki,[1],Not Active
same,IC50,Adenosine receptor A2a,Not Active
same,IC50,Caspase-1,Not Active
same,IC50,[2],Not Active
same,IC50,Glycine receptor,Not Active
same,IC50,Thromboxane-A synthase,Not Active
same,IC50,Substance-P receptor,Not Active
same,IC50,D(1A) dopamine receptor,Not Active
same,IC50,[3],Not Active
same,IC50,[4],Not Active
same,Ki,[4],Not Active
same,IC50,Adenosine receptor A3; cho-k1,Not Active
same,IC50,[5]; cho-k1,Not Active
same,IC50,[6],Not Active
same,IC50,[7],Not Active
same,IC50,[8],Not Active
same,Ki,[8],Not Active
Oc1c(I)cc(I)c2cccnc12 [IODOQUINOL],IC50,[1],Not Active
same,Ki,[1],Not Active
same,IC50,Adenosine receptor A2a,Not Active
same,IC50,Caspase-1,Not Active
same,IC50,[2]; read-out: IC50,0.364 µM
same,IC50,Glycine receptor,Not Active
same,IC50,Thromboxane-A synthase,Not Active
same,IC50,Substance-P receptor,Not Active
same,IC50,D(1A) dopamine receptor,Not Active
same,IC50,[3],Not Active
same,IC50,[4],Not Active
same,Ki,[4],Not Active
same,IC50,Adenosine receptor A3; read-out: IC50,0.933 µM
same,Ki,Adenosine receptor A3,0.527 µM
same,IC50,[5]; cho-k1,Not Active
same,IC50,[6],Not Active
same,IC50,[7],Not Active
same,IC50,[8],Not Active
same,Ki,[8],Not Active
NNC(=O)c1ccncc1 [ISONIAZID],IC50,[1],Not Active
same,Ki,[1],Not Active
same,IC50,Adenosine receptor A2a,Not Active
same,IC50,Caspase-1,Not Active
same,IC50,[2],Not Active
same,IC50,Glycine receptor,Not Active
same,IC50,Thromboxane-A synthase,Not Active
same,IC50,Substance-P receptor,Not Active
same,IC50,D(1A) dopamine receptor,Not Active
same,IC50,[3],Not Active
same,IC50,[4],Not Active
same,Ki,[4],Not Active
same,IC50,Adenosine receptor A3; cho-k1,Not Active
same,IC50,[5]; cho-k1,Not Active
same,IC50,[6],Not Active
same,IC50,[7],Not Active
same,IC50,[8],Not Active
same,Ki,[8],Not Active
CC1=C(/C=C/C(C)=C/C=C/C(C)=C\C(=O)O)C(C)(C)CCC1 [ISOTRETINOIN],IC50,[1],Not Active
same,Ki,[1],Not Active
same,IC50,Adenosine receptor A2a,Not Active
same,IC50,Caspase-1,Not Active
same,IC50,[2]; read-out: IC50,2.53 µM
same,IC50,Glycine receptor,Not Active
same,IC50,Thromboxane-A synthase,Not Active
same,IC50,Substance-P receptor,Not Active
same,IC50,D(1A) dopamine receptor,Not Active
same,IC50,[3],Not Active
same,IC50,[4],Not Active
same,Ki,[4],Not Active
same,IC50,Adenosine receptor A3; read-out: IC50,4.17 µM
same,Ki,Adenosine receptor A3,2.36 µM
same,IC50,[5]; read-out: IC50,0.848 µM
same,Ki,[5],0.54 µM
same,IC50,[6],Not Active
same,IC50,[7],Not Active
same,IC50,[8],Not Active
same,Ki,[8],Not Active
CO[C@@H]1[C@@H](O[C@@H]2O[C@H](C)[C@@H](O[C@H]3C[C@@](C)(O)[C@@H](OC(=O)CC(C)C)[C@H](C)O3)[C@H](N(C)C)[C@H]2O)[C@@H](CC=O)C[C@@H](C)[C@@H](O)/C=C/C=C/C[C@@H](C)OC(=O)C[C@H]1O [KITASAMYCIN],IC50,[1],Not Active
same,Ki,[1],Not Active
same,IC50,Adenosine receptor A2a,Not Active
same,IC50,Caspase-1,Not Active
same,IC50,[2],Not Active
same,IC50,Glycine receptor,Not Active
same,IC50,Thromboxane-A synthase,Not Active
same,IC50,Substance-P receptor,Not Active
same,IC50,D(1A) dopamine receptor,Not Active
same,IC50,[3],Not Active
same,IC50,[4],Not Active
same,Ki,[4],Not Active
same,IC50,Adenosine receptor A3; cho-k1,Not Active
same,IC50,[5]; cho-k1,Not Active
same,IC50,[6],Not Active
same,IC50,[7],Not Active
same,IC50,[8],Not Active
same,Ki,[8],Not Active
CC(CCc1ccccc1)NCC(O)c1ccc(O)c(C(N)=O)c1 (stereo not drawn) [LABETALOL],IC50,[1],Not Active
same,Ki,[1],Not Active
same,IC50,Adenosine receptor A2a,Not Active
same,IC50,Caspase-1,Not Active
same,IC50,[2],Not Active
same,IC50,Glycine receptor,Not Active
same,IC50,Thromboxane-A synthase,Not Active
same,IC50,Substance-P receptor,Not Active
same,IC50,D(1A) dopamine receptor,Not Active
same,IC50,[3],Not Active
same,IC50,[4],Not Active
same,Ki,[4],Not Active
same,IC50,Adenosine receptor A3; cho-k1,Not Active
same,IC50,[5]; read-out: IC50,3.04 µM
same,Ki,[5],1.93 µM
same,IC50,[6],Not Active
same,IC50,[7],Not Active
same,IC50,[8],Not Active
same,Ki,[8],Not Active
